Publication PMC12463676, “Small-molecule dissolution of stress granules by redox modulation benefits ALS models” (Nature Chemical Biology, 2025)
Residue numbers refer to the chain shown, from its start.

Assays:
FUS–GFP [1] = molecular target: T1, FUS–GFP (Homo sapiens, UniProt P35637, G156E); test: condensate ageing: FRAP and fibre formation; assay type: biochemical; settings: 30 uM compound, 50 mM KCl, 1 mM DTT, pH 7.4, shaking; condensates
T1 construct: full-length FUS with C-terminal GFP; 6xHis-MBP tag cleaved by 3C protease; Sf9 insect cells; condensates at low salt
T1 sequence (P35637 1-526 G156E): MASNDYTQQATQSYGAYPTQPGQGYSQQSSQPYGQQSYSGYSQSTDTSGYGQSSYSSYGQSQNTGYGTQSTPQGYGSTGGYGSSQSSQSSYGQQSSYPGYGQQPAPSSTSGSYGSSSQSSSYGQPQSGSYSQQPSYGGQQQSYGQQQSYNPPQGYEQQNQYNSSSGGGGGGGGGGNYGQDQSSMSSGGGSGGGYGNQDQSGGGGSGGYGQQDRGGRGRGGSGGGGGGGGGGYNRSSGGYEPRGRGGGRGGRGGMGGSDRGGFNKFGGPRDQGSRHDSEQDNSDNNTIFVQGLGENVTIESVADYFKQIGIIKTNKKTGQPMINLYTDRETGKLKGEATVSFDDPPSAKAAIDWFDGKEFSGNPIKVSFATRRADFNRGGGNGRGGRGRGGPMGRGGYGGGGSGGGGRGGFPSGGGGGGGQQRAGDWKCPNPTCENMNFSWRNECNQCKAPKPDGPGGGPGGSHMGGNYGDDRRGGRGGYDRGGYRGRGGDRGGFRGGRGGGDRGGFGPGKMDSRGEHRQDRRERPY

FUS–GFP [2] = molecular target: T2, FUS–GFP (Homo sapiens, UniProt P35637); test: imaging of FUS-GFP condensates in vitro; assay type: biochemical; settings: 100 uM compound, 50 mM KCl, 1 mM DTT, pH 7.4, 0.7 uM FUS-GFP
T2 construct: full-length FUS with C-terminal GFP; 6xHis-MBP tag cleaved by 3C protease; Sf9 insect cells; condensates at low salt
T2 sequence (P35637 1-526): T1 sequence (P35637 1-526 G156E) with E156G

Structure (SMILES): NC(=O)CCCCC1CCSS1 (racemic) [lipoamide]
- condensate ageing: FRAP and fibre formation (FUS–GFP [1]): Both lipoamide and lipoic acid reduced FUS-G156E–GFP condensate hardening and fiber formation

Structure (SMILES): O=C(O)CCCC[C@@H]1CCSS1 [lipoic acid]
- condensate ageing: FRAP and fibre formation (FUS–GFP [1]): Both lipoamide and lipoic acid reduced FUS-G156E–GFP condensate hardening and fiber formation

Structure (SMILES): O=C1c2c(O)ccc(O)c2C(=O)c2c(NCCNCCO)ccc(NCCNCCO)c21 [mitoxantrone]
- imaging of FUS-GFP condensates in vitro (FUS–GFP [2]): the fewer smaller drops with mitoxantrone
